Measurements as given in patent publication US8735584B2 (Merck Patent GmbH, priority 2008, dated 2014).

The compounds below were run against T1, GST-Aurora A (Homo sapiens, UniProt O14965) (assay: Aurora A IC50, Caliper LC3000 mobility shift assay). Settings: LC3000 method; 15 uM ATP (the KM value); read-out: Aurora Kinase A Activity (IC50).
T1 construct: N-terminal GST fusion with full length Aurora A (1-403 amino acids); purchased Carna Biosciences 05-101
T1 sequence (O14965 1-403): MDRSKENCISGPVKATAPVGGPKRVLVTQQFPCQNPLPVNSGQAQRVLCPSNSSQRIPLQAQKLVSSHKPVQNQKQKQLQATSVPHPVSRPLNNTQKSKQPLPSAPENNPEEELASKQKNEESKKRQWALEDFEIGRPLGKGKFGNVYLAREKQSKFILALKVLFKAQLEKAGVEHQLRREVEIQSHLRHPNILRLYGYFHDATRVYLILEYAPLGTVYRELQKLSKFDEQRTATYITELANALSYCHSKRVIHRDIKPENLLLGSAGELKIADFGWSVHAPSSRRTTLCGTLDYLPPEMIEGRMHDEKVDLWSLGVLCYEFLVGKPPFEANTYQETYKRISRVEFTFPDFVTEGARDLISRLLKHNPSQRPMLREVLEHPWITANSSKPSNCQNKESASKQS
Format: biochemical
Protocol: The Aurora assays described here are performed on two Caliper Life Sciences systems: the LC3000 and the Desktop Profiler. These provide data on enzyme activity via measurement of the relative amounts of phosphorylated or unphosphorylated fluorescently labelled substrate peptide at the end of an enzymatic reaction. These different states of peptide are resolved by applying a potential difference across the sample. The presence of the charged phosphate group on the product (as opposed to the substrate) causes a different peptide mobility between the two peptides. This is visualized by excitation of the fluorescent label on the substrate and product peptides and represented as peaks within the analysis software.
In order to measure inhibitor activity of Aurora A inhibitors in the Caliper Life Sciences LC3000, a TTP Mosquito liquid handling instrument is used to place 0.25 ul of the appropriate concentration of inhibitor in 100% DMSO (for a dose response curve calculation) into each well of a 384-well plate. To this reaction components are added to a final volume of 25 ul: • 0.067 ng/ul GST-Aurora A (Carna Biosciences 05-101. N-terminal GST fusion with full length Aurora A (1-403 amino acids), accession number NP 940835.1). • 15 uM ATP (Fluke, 02055) • 1 mM DTT (Sigma, D0632) • 1 mM MgCl2 (Sigma, M1028) • 1 uM substrate peptide (sequence FITC-LRRASLG-(CONH2), synthesized by Tufts Peptide Synthesis service. • 100 mM HEPES pH 7.5 (Calbiochem, 391338) • 0.015% Brij-35 (Sigma, B4184)
The reaction is incubated for 90 min at 25 C, and then stopped by the addition of 70 ul of Stop buffer (100 mM HEPES pH 7.5, 0.015% Brij-35, 10 mM EDTA (Sigma, E7889)).
The plate is read on a Caliper LC3000 in an Off-Chip mobility shift assay format, using the following parameters for a 12-sipper chip: screening pressure—1.8 psi, upstream voltage—2700, downstream voltage—1000. These conditions cause unphosphorylated substrate and phosphorylated product peptide to resolve as separate peaks allowing direct measurement of percentage of conversion of substrate to product. The percent conversion can be plotted against concentration of inhibitor to produce a sigmoidal dose response curve, from which an 1050 can be calculated using XLFit for Microsoft Excel.
In the desired wells of a 384-well plate, Aurora A (0.067 ng/ul) was incubated with 15 uM ATP (the KM value), 1 mM DTT, 1 mM MgCl2, and 1 uM peptide substrate (sequence FITC-LRRASLG-(CONH2), FITC=fluorescein isothiocyanate) in 100 mM HEPES pH 7.5 and 0.015% Brij-35 buffer. The reaction was incubated for 90 min at 25 C, and then stopped by the addition of 45 ul of Stop buffer (100 mM HEPES ph 7.5, 0.015% Brij-35, 10 mM EDTA).
The plate was read in a Caliper LC 3000 in an Off-Chip mobility shift assay format, using the following parameters: screening pressure—1.8 psi, upstream voltage—2700, downstream voltage—1000. These conditions cause unphosphorylated substrate peptide to resolve as a peak before that of the phosphorylated peptide product.
In the following table “+” means >100 nM, “++” means 11-100 nM, and “+++” means <11 nM.

SMILES | IC50
O=C(Nc1ccc(Nc2ccnc3[nH]c(=O)c4ccccc4c23)cc1)c1ccccc1F [Compound 380, 2-Fluoro-N-[4-(6-oxo-5,6-dihydro-benzo[c][1,8]naphthyridin-1-ylamino)-phenyl]-benzamide] | < 11 nM
O=C(Nc1ccc(Nc2ccnc3[nH]c(=O)c4c(C(=O)NCCN5CCOCC5)cccc4c23)cc1)c1ccc(F)cc1C(F)(F)F [Compound 442, 1-[4-(4-Fluoro-2-trifluoromethyl-benzoylamino)-phenylamino]-6-oxo-5,6-dihydro-benzo[c][1,8]naphthyridine-7-carboxylic acid (2-morpholin-4-yl-ethyl)-amide] | < 11 nM
O=C(Nc1ccc(Nc2ccnc3[nH]c(=O)c4c(C(=O)O)cccc4c23)cc1)c1ccc(F)cc1C(F)(F)F [Compound 439, 1-[4-(4-Fluoro-2-trifluoromethyl-benzoylamino)-phenylamino)-6-oxo-5,6-dihydro-benzo[c][1,8]naphthyridin-7-carboxylic acid] | < 11 nM
O=C(CN1CCC(Nc2ccnc3[nH]c(=O)c4ccccc4c23)C1)Nc1ccccc1 (centres unmarked) [Compound 371, 2-(3-(6-Oxo-5,6-dihydrobenzo[c][1,8]naphthyridin-1-ylamino)pyrrolidin-1-yl)-N-phenylacetamide] | > 100 nM
O=C(c1ccc(F)c(F)c1)N1CCC(CNc2ccnc3[nH]c(=O)c4ccccc4c23)CC1 [Compound 408, 1-{[1-(3,4-Difluoro-benzoyl)-piperidin-4-ylmethyl]-amino}-5H-benzo[c][1,8]naphthyridin-6-one] | > 100 nM
O=C(Nc1ccc(Nc2ccnc3[nH]c(=O)c4ccc(C(F)(F)F)cc4c23)cc1)c1ccc(F)cc1C(F)(F)F [Compound 404, 4-Fluoro-N-[4-(9-trifluoromethyl-6-oxo-5,6-dihydro-benzo[c][1,8]naphthyridin-1-ylamino)-phenyl]-2-trifluoromethyl-benzamide] | < 11 nM
O=C(Cc1ccc(Nc2ccnc3[nH]c(=O)c4ccccc4c23)cc1)Nc1ccccc1 [Compound 303, 2-(4-(6-Oxo-5,6-dihydrobenzo[c][1,8]naphthyridin-1-ylamino)phenyl)-N phenylacetamide] | 11 to 100 nM
O=C(Nc1ccc(Nc2ccnc3[nH]c(=O)c4c(OCCN5CCOCC5)cccc4c23)cc1)c1ccccc1 [Compound 447] | 11 to 100 nM
O=c1[nH]c2nccc(Nc3ccc(OCc4ccccc4)cc3)c2c2ccccc12 [Compound 329, 1-(4-(Benzyloxy)phenylamino)benzo[c][1,8]naphthyridin-6(5H)-one] | 11 to 100 nM
CN1CCN(Cc2ccccc2C(=O)Nc2ccc(Nc3ccnc4[nH]c(=O)c5ccccc5c34)cc2)CC1 [Compound 355, 2-((4-Methylpiperazin-1-yl)methyl)-N-(4-(6-oxo-5,6-dihydrobenzo[c][1,8]naphthyridin-1-ylamino)phenyl)benzamide] | > 100 nM
O=C(Nc1ccc(Nc2ccnc3[nH]c(=O)c4c(O)cccc4c23)cc1)c1ccc(F)cc1C(F)(F)F [Compound 445, 4-Fluoro-N-[4-(7-hydroxy-6-oxo-5,6-dihydro-benzo[c][1,8]naphthyridin-1-ylamino)-phenyl]-2-trifluoromethyl-benzamide] | 11 to 100 nM
O=C(Nc1ccc(Nc2ccnc3[nH]c(=O)c4ccccc4c23)cc1)C1CC1 [Compound 351, N-(4-(6-Oxo-5,6-dihydrobenzo[c][1,8]naphthyridin-1-ylamino)phenyl)cyclopropanecarboxamide] | 11 to 100 nM
O=C(NCc1ccc(Nc2ccnc3[nH]c(=O)c4ccccc4c23)cc1)c1ccccc1 [Compound 327, N-(4-(6-oxo-5,6-dihydrobenzo[c][1,8]naphthyridin-1-ylamino)benzyl)benzamide] | 11 to 100 nM
O=C(Nc1ccc(Nc2ccnc3[nH]c(=O)c4ccccc4c23)cc1)C(F)(F)F [Compound 348, 2,2,2-Trifluoro-N-(4-(6-oxo-5,6-dihydrobenzo[c][1,8]naphthyridin-1-ylamino)phenyl)acetamide] | > 100 nM
O=C(Nc1ccc(Nc2ccnc3[nH]c(=O)c4ccccc4c23)cc1)c1ccc(F)cc1C(F)(F)F [Compound 378, 4-Fluoro-N-[4-(6-oxo-5,6-dihydro-benzo[c][1,8]naphthyridin-1-ylamino)-phenyl]-2-trifluoromethyl-benzamide] | < 11 nM
O=C(NCC(O)CO)c1ccc2c(c1)c(=O)[nH]c1nccc(Nc3ccc(NC(=O)c4ccccc4)cc3)c12 (centres unmarked) [Compound 272, 1-(4-Benzamidophenylamino)-N-(2,3-dihydroxypropyl)-6-oxo-5,6-dihydrobenzo[c][1,8]naphthyridine-8-carboxamide] | < 11 nM
O=C(Nc1ccc(Nc2ccnc3[nH]c(=O)c4c(C(=O)NCCCN5CCOCC5)cccc4c23)cc1)c1ccc(F)cc1C(F)(F)F [Compound 443, 1-[4-(4-Fluoro-2-trifluoromethyl-benzoylamino)-phenylamino)-6-oxo-5,6-dihydro-benzo[c][1,8]naphthyridin-7-carboxylic acid 3-morpholin-4-yl-propyl amide] | < 11 nM

Next, values leading:

IC50 | SMILES
> 100 nM | O=C(c1ccc(F)cc1C(F)(F)F)N1CCOc2cc(Oc3ccnc4[nH]c(=O)c5ccccc5c34)ccc21 [Example 219, 1-[4-(4-Fluoro-2-trifluoromethyl-benzoyl)-3,4-dihydro-2H-benzo[1,4]oxazin-7-yloxy]-5H-benzo[c][1,8]naphthyridin-6-one]
> 100 nM | COc1cccc(CNc2ccc3c(=O)[nH]c4ncccc4c3c2)c1 [Example 42, 9-(3-Methoxy-benzylamino)-5H-benzo[c][1,8]naphthyridin-6-one]
11 to 100 nM | O=C(Nc1ccc(Nc2ccnc3[nH]c(=O)c4ccccc4c23)cc1)C(F)c1ccccc1 (centres unmarked) [Compound 505, 2-Fluoro-N-(4-(6-oxo-5,6-dihydrobenzo[c][1,8]naphthyridin-1-ylamino)phenyl)-2-phenylacetamide]
11 to 100 nM | O=C(Nc1ccc(Nc2ccnc3[nH]c(=O)c4ccccc4c23)cc1)C1(C(F)(F)F)CCCC1 [Compound 500, N-(4-(6-Oxo-5,6-dihydrobenzo[c][1,8]naphthyridin-1-ylamino)phenyl)-1-(trifluoromethyl)cyclopentanecarboxamide]
> 100 nM | O=c1[nH]c2ncccc2c2cc(NS(=O)(=O)c3ccc(Br)cc3)ccc12 [Example 72, 4-Bromo-N-(6-oxo-5,6-dihydro-benzo[c][1,8]naphthyridin-9-yl)-benzenesulfonamide]
> 100 nM | O=C(CN1CCC(Nc2ccnc3[nH]c(=O)c4ccccc4c23)CC1)NC1CCCCC1 [Compound 485, N-Cyclohexyl-2-(4-(6-oxo-5,6-dihydrobenzo[c][1,8]naphthyridin-1-ylamino)piperidin-1-yl)acetamide]
> 100 nM | O=C(CN1CCC(Nc2ccnc3[nH]c(=O)c4ccccc4c23)CC1)NC1CC1 [Compound 488, N-Cyclopropyl-2-(4-(6-oxo-5,6-dihydrobenzo[c][1,8]naphthyridin-1-ylamino)piperidin-1-yl)acetamide]
> 100 nM | O=c1[nH]c2ncccc2c2cc(NCc3cccnc3)ccc12 [Example 123, 9-[(Pyridin-3-ylmethyl)-amino]-5H-benzo[c][1,8]naphthyridin-6-one]
> 100 nM | N#Cc1cccc(CNc2ccc3c(=O)[nH]c4ncccc4c3c2)c1 [Compound 463, 3-((6-Oxo-5,6-dihydrobenzo[c][1,8]naphthyridin-9-ylamino)methyl)benzonitrile]
